Reference: US11271238B2, “Applications of low-cost, thermal and electrochemically stable organic compounds as high performance redox active materials in redox flow batteries” (Utah State University, priority 2018, dated 2022)
Like-named read-outs stand apart in the source and are kept apart here. Values belong to the molecule of their own block, whether it stands above or below them.

How the values were obtained:
[1] = Aqueous solubility; type: physicochemical
[2] = cited from earlier work
[3] = Oxygen sensitivity of the reduced state (bubbling with air for 10 minutes); type: physicochemical
[4] = Linear sweep voltammetry with rotating disk electrode (Levich plot); type: physicochemical; conditions: 1.0 mM in 0.5 M NaCl, Levich equation
Experimental: Linear sweep voltammetry (LSV) experiments were conducted using a Gamry 1000E potentiostat with a three-electrode system. A 5 mm diameter rotating glassy carbon disk encased in Teflon served as the working electrode. A glassy carbon rod was used as the counter electrode. An Ag/AgCl wire served as the reference electrode. The working electrode was cleaned using the same method as in the CV experiments. During the experiments, the working electrode rotated from 300 rpm to 2400 rpm at increments of 300 rpm. Three scans at each rotation rate were collected to ensure accuracy. LSV scans were conducted at a rate of 5 mV/s from 0.2 V to 0.8 V versus NHE.

[5] = Electron transfer rate constant by Nicholson's method; type: physicochemical
Experimental: The electron transfer rate constants (k^0) for the electron transfers of [([…]]^3+ were estimated. Following the well-known Nicholson's method (R. S. Nicholson, Anal. Chem. 1965, 37, 1351-1355.), a solution containing 4.0 mM [(NPr)2TTz]Cl4 with 0.5 M NaCl was used to record CV curves (FIG. 6A and FIG. 6B). The peak-to-peak separation (reduction and oxidation peak potential gap), ΔEp, was obtained and used to calculate the kinetic parameter, Ψ, using Equation 2. And then, k^0 was calculated from equation 3 based on the relationship between Ψ and ν^-1/2. Ψ=(-0.6288+0.0021ΔEp)/(1-0.017ΔEp) (Equation 2) Ψ=k^0[πDnF/RT]^-1/2ν^-1/2 (Equation 3) where F, D, and n are defined in Equation 1, R=8.314, and ν represents the scan rate.

[6] = Cyclic voltammetry in 0.5 M NaCl; type: physicochemical
Experimental: Cyclic voltammetry was further used to characterize [(NPr)2TTz]Cl4.r All cyclic voltammetry experiments were conducted in an N2 purged 0.5 M NaCl aqueous solution with a Gamry 1000E potentiostat. A 3 mm PEEK encased glassy carbon disk was used as the working electrode. The working electrode was polished with 0.05 micron Al2O3 powder and rinsed with deionized H2O. A glassy carbon rod was used as the counter electrode. A silver wire coated with AgCl and suspended in 3.0 M KCl electrolyte was used as the reference electrode. The two redox peaks of [(NPr)2TTz]Cl4 were distinguished by peak fitting of its CV curve in the Origin program after removing background current.

[7] = 500 mV/s scan rate, 4.0 mM in 0.5 M NaCl

Molecule: C[n+]1ccc(-c2nc3sc(-c4cc[n+](C)cc4)nc3s2)cc1.[Cl-].[Cl-] [(Me2TTz)Cl2, N,N′-dimethyl 2,5-bis(4-pyridinium)thiazolo[5,4-d]thiazole Dichloride]
water solubility ([1]; in water): < 10 mm

Molecule: C[n+]1ccc(-c2cc[n+](C)cc2)cc1 [Methyl viologen]
air sensitivity of reduced states ([2]; MV^+ and MV^0): highly air sensitive
solubility of charge-neutral state in aqueous solution ([2]; aqueous solution): insolubility

Molecule: N, N, N, 2, 2, 6, 6-Heptamethylpiperidinyloxy-4-ammonium Chloride [N^Me-TEMPO, reference compound]
single-electron oxidation potential ([6]; neutral NaCl solution): +1.0 V (vs. NHE)

Further lines, with some results ahead:

oxygen sensitivity of the two-electron reduced state [3]: no change in color
Molecule: C[N+](C)(C)CCCN1C=CC(=c2nc3sc(=C4C=CN(CCC[N+](C)(C)C)C=C4)nc3s2)C=C1.[Cl-].[Cl-] [[(NPr)2TTz]Cl2, 3,3′-(thiazolo[5,4-d]thiazole-2,5-diylidenebis(pyridin-1(4H)-yl-4(4H)-ylidene))bis(N,N,N-trimethylpropan-1-aminium) Dichloride]

average diffusion coefficient (D) for [(NPr)2TTz]^4+ and [(NPr)2TTz]^3+ [4]: 3.15×10^−6 cm^2 s^−1
peak-to-peak separation ΔEp, 1st electron reduction [5, 7]: 53 mV
peak-to-peak separation ΔEp, 2nd electron reduction [5, 7]: 58 mV
E1/2 of 1st electron reduction ([(NPr)2TTz]^4+/3+) ([6]; 4.0 mM in 0.5 M NaCl): −0.38 V vs. NHE
E1/2 of 2nd electron reduction ([(NPr)2TTz]^3+/2+) ([6]; 4.0 mM in 0.5 M NaCl): −0.50 V vs. NHE
average redox potential of the two single-electron reductions ([6]; neutral NaCl solution): -0.44 V
solubility ([1]; 2.0 m NaCl aqueous solution, saline or isotonic, in 2.0 m NaCl, read-out: solubility in 2.0 m NaCl): 1100 mM
charge capacity corresponding to solubility ([1]; in 2.0 m NaCl): 60.0 Ah L^−1
charge capacity corresponding to solubility ([1]; in H2O): 69.7 Ah L^−1
solubility ([1]; water, in H2O, read-out: solubility in water): 1300 mM
Molecule: C[N+](C)(C)CCC[n+]1ccc(-c2nc3sc(-c4cc[n+](CCC[N+](C)(C)C)cc4)nc3s2)cc1.[Cl-].[Cl-].[Cl-].[Cl-] [[(NPr)2TTz]Cl4, 4,4′-(thiazolo[5,4-d]thiazole-2,5-diyl)bis(1-(3-(trimethylammonio)propyl)pyridin-1-ium) tetrachloride]
electron transfer rate constant k^0, both single-electron reductions ([5]; lower limit, Ψ=20, 500 mV/s): greater than 0.28 cm/s
